This note sets out measurements from ChEMBL document CHEMBL1201862, “PubChem BioAssay data set” (2004).

Test systems include U-251; OVCAR-5; HCC 2998; HOP-62; SR; RXF 393; MDA-MB-435; 786-0; SF-539; IGROV-1; MCF7; COLO 205; HL-60; HOP-92; EKVX; UO-31; UACC-257; CCRF-CEM; K562; CAKI-1.
Common to all, as to assay: NCI-60 cell line screen, 48 h

Structures can show the parent of a compound that is named as a salt.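 Five concentrations, 48 hours, 96-well plates. The concentration for 50% growth inhibition is given as GI50.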 Calls of active or inactive are those of the source. No stated cut-off is given here; in the data, active = GI50 up to about 1.1 µM and inactive = higher.

As for `CCN(CC)CCOC(NC(C)=O)(c1ccccc1)c1ccccc1`, the GI50 in the assay with U-251, in the assay with OVCAR-5, in the assay with HCC 2998, in the assay with HOP-62, in the assay on SR and in the assay with RXF 393 was > 100 µM (inactive) in each case. In addition, the GI50 in the assay on MDA-MB-435, with 786-0, with SF-539, in the assay with IGROV-1, with MCF7 and in the assay on COLO 205 was > 100 µM (inactive) each time. Also, the GI50 with HL-60, in the assay with HOP-92, with EKVX, in the assay with UO-31, in the assay with UACC-257 and with CCRF-CEM was > 100 µM (inactive) in each case.
Turning to `N#Cc1c(C#N)c(-c2ccccc2)n(Cc2ccccc2)c1N`, the GI50 in the assay on K562 was > 100 µM (inactive); in the assay on U-251, 80.5 µM (inactive); in the assay on OVCAR-5 it was > 100 µM (inactive); with HCC 2998 it was > 100 µM (inactive); in the assay with HOP-62, 51.1 µM (inactive); in the assay on SR it was > 100 µM (inactive). Besides, the GI50 with RXF 393 is 48.6 µM (inactive); with MDA-MB-435, > 100 µM (inactive); with 786-0 it was 35 µM (inactive); in the assay on SF-539 it was 26 µM (inactive); in the assay on IGROV-1, > 100 µM (inactive); with MCF7, > 100 µM (inactive). Besides, the GI50 in the assay on COLO 205, in the assay with HL-60, in the assay with CAKI-1, with EKVX, in the assay on UO-31 and in the assay with UACC-257 was > 100 µM (inactive) in each case. Moreover, the GI50 in the assay on CCRF-CEM is > 100 µM (inactive).
Consider `Cc1ccc([S+]([O-])c2sccc2C=O)cc1` (centres undefined), for which the GI50 in the assay with K562 was 48.6 µM (inactive); in the assay on U-251 it was 18.9 µM (inactive); with OVCAR-5, 49.2 µM (inactive); with HCC 2998, 32.7 µM (inactive); in the assay on HOP-62, 31.3 µM (inactive); with SR it was 31.8 µM (inactive). In addition, the GI50 with RXF 393 was 56.9 µM (inactive); in the assay with MDA-MB-435 it was 24.7 µM (inactive); with 786-0 it was 32.1 µM (inactive); in the assay with SF-539 it was 21 µM (inactive); in the assay with IGROV-1, 22.6 µM (inactive); in the assay with MCF7, 21.4 µM (inactive). Also, the GI50 in the assay on COLO 205 was 41 µM (inactive); in the assay on HL-60 it was 21 µM (inactive); in the assay with CAKI-1 it was > 100 µM (inactive); in the assay on EKVX, 26.2 µM (inactive); in the assay with UO-31, 70.1 µM (inactive); with UACC-257 it was 53.5 µM (inactive). Moreover, the GI50 in the assay with CCRF-CEM is 20 µM (inactive).
Take `COC(=O)c1c2c(cc3c1CC1(C3)Cc3cc4c(c(C(=O)OC)c3C1)CCC4)CCC2`: the GI50 with K562 was > 100 µM (inactive); in the assay with U-251, > 100 µM (inactive); in the assay with OVCAR-5, > 100 µM (inactive); in the assay with HCC 2998 it was > 100 µM (inactive); with HOP-62 it was > 100 µM (inactive); in the assay on SR it was 30.7 µM (inactive). The GI50 in the assay on RXF 393, in the assay on MDA-MB-435, in the assay with 786-0, in the assay with SF-539, in the assay on IGROV-1 and in the assay on MCF7 was > 100 µM (inactive) in each case. Also, the GI50 is > 100 µM (inactive) with COLO 205; 22.1 µM (inactive) in the assay with HL-60; > 100 µM (inactive) in the assay with HOP-92; > 100 µM (inactive) in the assay on EKVX; 13.6 µM (inactive) in the assay with UO-31; > 100 µM (inactive) in the assay with UACC-257. The GI50 with CCRF-CEM is 98.9 µM (inactive).
On to `CSc1c(C#N)c(O)n(-c2ccc(C)cc2)c(=O)c1C#N`, for which the GI50 in the assay with K562, in the assay with U-251, with OVCAR-5, in the assay with HCC 2998, with SR and in the assay on RXF 393 was > 100 µM (inactive) each time. Besides, the GI50 in the assay with MDA-MB-435, with 786-0, with SF-539, in the assay on IGROV-1, in the assay on MCF7 and in the assay with COLO 205 was > 100 µM (inactive) in each case. The GI50 with HL-60, with CAKI-1, with HOP-92, in the assay on EKVX, in the assay on UO-31 and in the assay on UACC-257 was > 100 µM (inactive) in each case.
Regarding `CC1CC(=O)N2CCCNC2=C1C#N` (centres undefined), the GI50 in the assay with K562, in the assay with U-251, in the assay on HCC 2998, in the assay on HOP-62, in the assay on SR and in the assay with RXF 393 was > 100 µM (inactive) in each case. Further, the GI50 in the assay with MDA-MB-435, in the assay on 786-0, in the assay with SF-539, in the assay on IGROV-1, in the assay on MCF7 and in the assay on COLO 205 was > 100 µM (inactive) in each case. In addition, the GI50 with HL-60 was > 10 µM (inactive); in the assay with CAKI-1, > 100 µM (inactive); with EKVX, > 100 µM (inactive); in the assay on UO-31, > 100 µM (inactive); in the assay with UACC-257 it was > 100 µM (inactive); in the assay on CCRF-CEM, > 100 µM (inactive).
As for `COc1ccc(/C=C2\Sc3nnc(CNc4ccc(Cl)cc4)n3N=C2c2cc(F)c(Cl)cc2Cl)cc1OC`, the GI50 in the assay with K562 was 19 µM (inactive); in the assay with U-251 it was > 100 µM (inactive); in the assay with OVCAR-5, 88.9 µM (inactive); in the assay on HCC 2998 it was 31 µM (inactive); in the assay with HOP-62 it was > 100 µM (inactive); in the assay with SR it was 21 µM (inactive). Further, the GI50 in the assay with RXF 393 is 15.8 µM (inactive); with MDA-MB-435, 27.2 µM (inactive); in the assay with 786-0, 24.5 µM (inactive); with SF-539, > 100 µM (inactive); in the assay with IGROV-1, > 100 µM (inactive); with MCF7 it was 23.9 µM (inactive). The GI50 was 45.7 µM (inactive) in the assay on HL-60; 23.6 µM (inactive) in the assay with CAKI-1; 17 µM (inactive) in the assay on HOP-92; > 100 µM (inactive) in the assay with EKVX; 56.9 µM (inactive) in the assay on UO-31; > 100 µM (inactive) in the assay with UACC-257. For the same molecule, the GI50 in the assay with CCRF-CEM is 4.97 µM (inactive).
As to `COc1ccc(/C=C2/CSCC3=C2N=C(S)NC3c2ccc(OC)c(OC)c2OC)c(OC)c1OC` (centres undefined), the GI50 with K562 is 7.6 µM (inactive); with U-251 it was 7.48 µM (inactive); in the assay on OVCAR-5 it was 25.2 µM (inactive); in the assay with HCC 2998 it was 31.3 µM (inactive); in the assay with HOP-62, 20.1 µM (inactive); in the assay with SR, < 0.01 µM (active). Besides, the GI50 is 14.4 µM (inactive) in the assay on RXF 393; 7.82 µM (inactive) in the assay with MDA-MB-435; 13.8 µM (inactive) in the assay with 786-0; 16.8 µM (inactive) in the assay on SF-539; 20 µM (inactive) with IGROV-1; 0.0798 µM (active) with MCF7. Further, the GI50 in the assay on COLO 205 is 19.9 µM (inactive); in the assay with HL-60, 6.34 µM (inactive); in the assay with CAKI-1, 36.6 µM (inactive); in the assay with HOP-92, < 0.01 µM (active); with EKVX, 51.3 µM (inactive); in the assay with UACC-257 it was 14.8 µM (inactive). Besides, the GI50 in the assay with CCRF-CEM is 3.4 µM (inactive).
In the case of `COc1ccc2c(c1)CN1C(=N2)CSC1c1cccc(Br)c1` (centres undefined), the GI50 in the assay with K562 was 5.89 µM (inactive); in the assay on U-251, 26.5 µM (inactive); in the assay on OVCAR-5 it was > 100 µM (inactive); in the assay on HCC 2998 it was 14.8 µM (inactive); with HOP-62, 46.8 µM (inactive); in the assay with SR it was 5.33 µM (inactive). The GI50 with RXF 393 was 19.9 µM (inactive); with MDA-MB-435, 6.15 µM (inactive); with 786-0, 17.8 µM (inactive); with SF-539, 15.4 µM (inactive); in the assay on IGROV-1 it was 43.9 µM (inactive); in the assay with MCF7, 10.6 µM (inactive). For the same molecule, the GI50 was 31.7 µM (inactive) in the assay on COLO 205; 3.58 µM (inactive) in the assay with HL-60; 16.3 µM (inactive) with CAKI-1; 8.61 µM (inactive) in the assay with HOP-92; 22.1 µM (inactive) in the assay on EKVX; 17.5 µM (inactive) with UO-31. The GI50 in the assay with UACC-257 was 20.3 µM (inactive).
On to `N=c1oc2ccc(Cl)cc2cc1C(=O)NC1CCCCC1`, for which the GI50 was 66.7 µM (inactive) with K562; > 100 µM (inactive) in the assay with U-251; > 100 µM (inactive) in the assay on OVCAR-5; 32.1 µM (inactive) in the assay with HCC 2998; > 100 µM (inactive) with HOP-62; 51.5 µM (inactive) with SR. Further, the GI50 in the assay on RXF 393 is > 100 µM (inactive); in the assay with MDA-MB-435 it was 49.2 µM (inactive); with 786-0 it was 87.9 µM (inactive); with SF-539, 81.8 µM (inactive); in the assay with IGROV-1, 41 µM (inactive); in the assay with MCF7, 58.6 µM (inactive). In addition, the GI50 is 51.6 µM (inactive) in the assay with COLO 205; 39.7 µM (inactive) in the assay on HL-60; > 100 µM (inactive) in the assay with CAKI-1; > 100 µM (inactive) in the assay on HOP-92; > 100 µM (inactive) with UACC-257; 33.7 µM (inactive) with CCRF-CEM.
Regarding `CNNCc1ccc(C(=O)NC(C)C)cc1` [PROCARBAZINE HYDROCHLORIDE], the GI50 in the assay with K562 was 410 µM (inactive); in the assay with OVCAR-5 it was > 439 µM (inactive); in the assay with HCC 2998 it was > 398 µM (inactive); in the assay on HOP-62 it was 383 µM (inactive); in the assay on SR, > 375 µM (inactive); in the assay with RXF 393, > 423 µM (inactive). Moreover, the GI50 with MDA-MB-435 was > 379 µM (inactive); in the assay with 786-0, 254 µM (inactive); in the assay on SF-539, > 500 µM (inactive); with IGROV-1 it was > 404 µM (inactive); with MCF7, > 486 µM (inactive); with COLO 205, > 500 µM (inactive). In addition, the GI50 with HL-60 was > 478 µM (inactive); with HOP-92, 369 µM (inactive); with EKVX it was > 500 µM (inactive); with UO-31, > 500 µM (inactive); in the assay on UACC-257, 450 µM (inactive); in the assay with CCRF-CEM it was 461 µM (inactive).
